Where two headings read alike, the source gives them in different places.
Assays:
[1] = test system: Tonische Konvulsionen der Kinterextremitäten; assay: Maximal electroshock test in rats; assay type: in vivo, Ratten; details: for ED50: Rattus norvegicus
Text: Die akute Schutzwirkung von Carbamazepin nach intravenöser Verabreichung im Vergleich zur oralen wurde mit Hilfe des maximalen Elektroschocks ermittelt. Die folgenden Methoden wurden verwendet: - Elektroschock Test an Ratten: Tonische Konvulsionen der Kinterextremitäten wurden durch Verabreichung eines Wechselstroms von 50 Hz und 36 mA während 0,63 Sekunden mit Hilfe von Cornealelektroden ausgelöst. Es wurden 10 Ratten pro Dosis und Zeiteinheit verwendet; eine Gruppe diente als Kontrolle. Die Anzahl der Ratten, die keine tonische Konvulsion der Hinterextremitäten aufwiesen, wurde für jede Gruppe bestimmt. Die ED₅₀ wurde mit Hilfe der Regressionsanalyse nach der Methode von Spearman und Kärber berechnet. - Elektroschock Test an Mäusen: Tonische Konvulsionen der Hinterextremitäten wurden durch Verabreichung eines Wechselstromes von 50 Hz und 18 mA während 0,2 Sekunden mittels Cornealelektroden ausgelöst. Für jede Dosis und Zeiteinheit wurden 10 Mäuse verwendet; eine Gruppe diente als Kontrolle. Die Anzahl der Mäuse, die keine tonische Konvulsion der Hinterextremitäten zeigten, wurde für jede Gruppe bestimmt. Die ED₅₀ wurde mit Hilfe der Regressionsanalyse nach der Methode von Spearman und Kärber bestimmt.

[2] = Dissolution of dry preparations in water; assay type: physicochemical; details: without aids, at 20°C
Procedure: Die unter den Nummern 14 bis 17 hergestellten Trockenpräparate lösen sich ohne Hilfsmittel in weniger als einer Minute bei 20°C in Wasser, während sich mikrokristallisiertes Carbamazepin unter den gleichen Bedingungen nicht löst.

[3] = test system: Tonische Konvulsionen der Hinterextremitäten; assay: Maximal electroshock test in mice; assay type: in vivo, Mäuse; details: for ED50: Mus musculus
Text: Die akute Schutzwirkung von Carbamazepin nach intravenöser Verabreichung im Vergleich zur oralen wurde mit Hilfe des maximalen Elektroschocks ermittelt. Die folgenden Methoden wurden verwendet: - Elektroschock Test an Ratten: Tonische Konvulsionen […] durch Verabreichung eines Wechselstroms von 50 Hz und 36 mA während 0,63 Sekunden mit Hilfe von Cornealelektroden ausgelöst. Es wurden 10 Ratten pro Dosis und Zeiteinheit verwendet; eine Gruppe diente als Kontrolle. Die Anzahl der Ratten, die keine tonische Konvulsion […], wurde für jede Gruppe bestimmt. Die ED50 wurde mit Hilfe der Regressionsanalyse nach der Methode von Spearman und Kärber berechnet. - Elektroschock Test an Mäusen: Tonische Konvulsionen […] durch Verabreichung eines Wechselstromes von 50 Hz und 18 […] jede Dosis und Zeiteinheit wurden 10 Mäuse verwendet; eine Gruppe diente als Kontrolle. Die Anzahl der Mäuse, die keine tonische Konvulsion […], wurde für jede Gruppe bestimmt. Die ED50 wurde mit Hilfe der Regressionsanalyse nach der Methode von Spearman und Kärber bestimmt.

Compound: NC(=O)N1c2ccccc2C=Cc2ccccc21 [Carbamazepin, 5H-Dibenz[b,f]azepin-5-carboxamid]
- ED50 ([1]; 2.5 min, intravenous, 2,5 min after dosing, read-out: ED₅₀ in mg/kg intravenös Ratten): 1.9 mg/kg
- ED50 ([1]; 2.5 min, oral, 2,5 min after dosing, read-out: ED₅₀ in mg/kg oral Ratten): > 60 mg/kg
- ED50 ([1]; 5 min, intravenous, 5 min after dosing, read-out: ED₅₀ in mg/kg intravenös Ratten): 1.6 mg/kg
- ED50 ([1]; 5 min, oral, 5 min after dosing, read-out: ED₅₀ in mg/kg oral Ratten): 60 mg/kg
- ED50 ([1]; 0.25 h, intravenous, 15 min after dosing, read-out: ED₅₀ in mg/kg intravenös Ratten): 2.5 mg/kg
- ED50 ([1]; 0.25 h, oral, 15 min after dosing, read-out: ED₅₀ in mg/kg oral Ratten): 15.4 mg/kg
- ED50 ([1]; 0.5 h, intravenous, 30 min after dosing, read-out: ED₅₀ in mg/kg intravenös Ratten): 3 mg/kg
- ED50 ([1]; 0.5 h, oral, 30 min after dosing, read-out: ED₅₀ in mg/kg oral Ratten): 9.6 mg/kg
- ED50 ([1]; 1 h, intravenous, 60 min after dosing, read-out: ED₅₀ in mg/kg intravenös Ratten): 2.5 mg/kg
- ED50 ([1]; 1 h, oral, 60 min after dosing, read-out: ED₅₀ in mg/kg oral Ratten): 10 mg/kg
- ED50 ([1]; 2 h, intravenous, 120 min after dosing, read-out: ED₅₀ in mg/kg intravenös Ratten): 4 mg/kg
- ED50 ([1]; 2 h, oral, 120 min after dosing, read-out: ED₅₀ in mg/kg oral Ratten): 12.5 mg/kg
- Schutzwirkung, % bei 10 mg/kg, Ratten ([1]; intravenous, 240 min after dosing, 10 mg/kg, printed in place of an ED₅₀): 40 % bei 10 mg/kg
- Auflösung in Wasser [2]: nicht löst
- ED50 ([3]; 2.5 min, intravenous, 2,5 min after dosing, read-out: ED₅₀ in mg/kg intravenös Mäuse): 5.4 mg/kg
- ED50 ([3]; 5 min, intravenous, 5 min after dosing, read-out: ED₅₀ in mg/kg intravenös Mäuse): 6.2 mg/kg
- ED50 ([3]; 5 min, oral, 5 min after dosing, read-out: ED₅₀ in mg/kg oral Mäuse): 22.7 mg/kg
- ED50 ([3]; 0.25 h, intravenous, 15 min after dosing, read-out: ED₅₀ in mg/kg intravenös Mäuse): 5.4 mg/kg
- ED50 ([3]; 0.25 h, oral, 15 min after dosing, read-out: ED₅₀ in mg/kg oral Mäuse): 22.3 mg/kg
- ED50 ([3]; 0.5 h, intravenous, 30 min after dosing, read-out: ED₅₀ in mg/kg intravenös Mäuse): 6.2 mg/kg
- ED50 ([3]; 0.5 h, oral, 30 min after dosing, read-out: ED₅₀ in mg/kg oral Mäuse): 10.7 mg/kg
- ED50 ([3]; 1 h, intravenous, 60 min after dosing, read-out: ED₅₀ in mg/kg intravenös Mäuse): 9.3 mg/kg
- ED50 ([3]; 1 h, oral, 60 min after dosing, read-out: ED₅₀ in mg/kg oral Mäuse): 13 mg/kg
- ED50 ([3]; 2 h, intravenous, 120 min after dosing, read-out: ED₅₀ in mg/kg intravenös Mäuse): 15.8 mg/kg
- ED50 ([3]; 2 h, oral, 120 min after dosing, read-out: ED₅₀ in mg/kg oral Mäuse): 27 mg/kg
- ED50 ([3]; 4 h, intravenous, 240 min after dosing, read-out: ED₅₀ in mg/kg in Mäuse): > 20 mg/kg
- Schutzwirkung, % bei 60, oral Mäuse ([3]; oral, 2,5 min after dosing, at 60 (column unit mg/kg), printed in place of an ED₅₀): 10 % bei 60
